The target of the test is T1, human skin chymase (Homo sapiens, UniProt P23946).
T1 construct: using human skin chymase (Cortex Biochem); purchased Cortex Biochem
T1 sequence (P23946 22-247): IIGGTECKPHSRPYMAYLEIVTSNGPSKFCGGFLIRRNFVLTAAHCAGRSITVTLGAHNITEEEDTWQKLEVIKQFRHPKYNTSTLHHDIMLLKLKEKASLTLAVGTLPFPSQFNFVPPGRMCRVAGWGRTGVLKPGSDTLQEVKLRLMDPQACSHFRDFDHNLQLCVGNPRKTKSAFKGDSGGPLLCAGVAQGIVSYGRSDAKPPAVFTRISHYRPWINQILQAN
Nature of the test: Enzyme-catalyzed hydrolysis assay (chymase inhibition). The note with it: 10 nM enzyme, 0.7 mM Suc-Ala-Ala-Pro-Phe-pNa, pH 8.0, 37° C., 30 minutes. It counts as biochemical. The protocol:
Enzyme-catalyzed hydrolysis rates were measured spectro-photometrically using human skin chymase (Cortex Biochem), a chromogenic substrate (Suc-Ala-Ala-Pro-Phe-pNa) (Bachem) in aqueous buffer (450 mM Tris, 1800 mM NaCl, pH 8.0), and a microplate reader (Molecular Devices). […] Percent inhibition was calculated by comparing the initial reaction slopes of the samples without inhibitor to those with inhibitor. IC50 values were determined using a four parameter fit logistics model. The term “NT” indicates a compound that was not tested.

With `CP(=O)(O)C(C(=O)N/C=C/c1ccccc1O)c1csc2ccc(Cl)cc12` (stereo not shown) [Cpd 149, {(5-Chloro-benzo[b]thiophen-3-yl)-[2-(2-hydroxy-phenyl)-vinylcarbamoyl]-methyl}-methyl-phosphinic acid], the IC50 was found to be 0.043 µM.
For `O=C(Nc1ccc2ccccc2c1)C(c1csc2cc(Br)ccc12)P(=O)(O)O` (stereo not shown) [Cpd 76] the value was 1.43 ± 0.451 µM; for `O=C(Nc1cc2ccccc2cc1NCCCCCc1ccccc1)C(c1cccc2ccccc12)P(=O)(O)O` (stereo not shown) [Cpd 110], 4.45 µM; for `Cn1cc(C(C(=O)Nc2ccc3ccccc3c2)P(=O)(O)O)c2cc(Br)ccc21` (stereo not shown) [Cpd 13], 0.04 ± 0.02 µM.
The figure for `CP(=O)(O)C(C(=O)Nc1ccc2ccccc2c1)c1c(C(=O)O)sc2ccccc12` (stereo not shown) [Cpd 118] is 5.72 ± 0.013 µM; for `O=C(Nc1ccc2ccccc2c1)C(c1cn(CC2CC2)c2ccccc12)P(=O)(O)O` (stereo not shown) [Cpd 62] it is 0.82 ± 0.5 µM; for `O=C(Nc1cc2ccccc2cc1C(=O)N1CCC(n2c(=O)[nH]c3ccccc32)CC1)C(c1cccc2ccccc12)P(=O)(O)O` (stereo not shown) [Cpd 93] it is 2.7 µM.
The figure for `Cn1cc(C(C(=O)N/C=C/c2cccc(F)c2)P(C)(=O)O)c2cc(Cl)ccc21` (stereo not shown) [Cpd 6] is 0.02 µM; for `Cn1cc(C(C(=O)Nc2ccc3ccccc3c2)P(=O)(O)O)c2cc(C(=O)O)ccc21` (stereo not shown) [Cpd 56, 1-Methyl-3-[(naphthalen-2-ylcarbamoyl)-phosphono-methyl]-1H-indole-5-carboxylic acid] it is 0.606 ± 0.13 µM.
Consider `CP(=O)(O)C(C(=O)NC=Cc1ccccc1N)c1csc2ccc(Cl)cc12` (stereo not shown) [Cpd 151, [[2-(2-Amino-phenyl)-vinylcarbamoyl]-(5-chloro-benzo[b]thiophen-3-yl)-methyl]-methyl-phosphinic acid], for which the IC50 stood at 0.4 ± 0.12 µM.
For `Cn1cc(C(C(=O)Nc2ccc3ccccc3c2)P(=O)(O)O)c2cccc(Cl)c21` (stereo not shown) [Cpd 58], the IC50 was determined as 0.63 ± 0.13 µM.
The figure for `CC(=O)Oc1ccccc1/C=C/NC(=O)C(c1csc2ccc(Cl)cc12)P(C)(=O)O` (stereo not shown) [Cpd 148] is 0.23 ± 0.04 µM; for `CP(=O)(O)C(C(=O)NC=Cc1cccc(C(F)(F)F)c1)c1csc2ccc(Cl)cc12` (stereo not shown) [Cpd 152] it is 0.13 ± 0.03 µM.
The figure for “[(5-Chloro-benzo[b]thiophen-3-yl)-(naphthalen-2-ylcarbamoyl)-methyl]-carbamate [Cpd 80]” is 1.65 ± 0.68 µM.
The figure for `O=C(Nc1ccc2ccccc2c1)C(c1csc2ccc(F)cc12)P(=O)(O)O` (stereo not shown) [Cpd 10] is 0.029 ± 0.01 µM; for `O=C(Nc1cccc(Oc2ccccc2)c1)C(c1cccc2ccccc12)P(=O)(O)O` (stereo not shown) [Cpd 138] it is 8.7 µM.
Take `CP(=O)(O)C(C(=O)N/C=C/c1ccccc1Cl)c1csc2ccc(Cl)cc12` (stereo not shown) [Cpd 160]: the IC50 came to 0.065 ± 0.02 µM.
`O=C(Nc1cc2ccccc2cc1C(=O)N1CCC(c2c[nH]c3ccccc23)CC1)C(c1cccc2ccccc12)P(=O)(O)O` (stereo not shown) [Cpd 83] yielded an IC50 of 1.72 µM. This IC50 is about 26-fold higher than that of the molecule before.
The figure for `O=C(Nc1ccc2ccccc2c1)C(CO)c1csc2ccc(Cl)cc12` (stereo not shown) [Cpd 136, 2-(5-Chloro-benzo[b]thiophen-3-yl)-3-hydroxy-N-naphthalen-2-yl-propionamide] is 8.63 ± 0.81 µM.
For `COc1ccc(C2CCN(C(=O)c3sc4ccccc4c3C(C(=O)Nc3ccc4ccccc4c3)P(C)(=O)O)CC2)cc1` (stereo not shown) [Cpd 35] the value was 0.235 ± 0.045 µM; for `CP(=O)(O)C(C(=O)N/C=C/c1cc(Cl)cc(Cl)c1)c1csc2ccc(Cl)cc12` (stereo not shown) [Cpd 170], 0.0031 µM; for `Cn1cc(C(C(=O)Nc2ccc3ccccc3c2)P(=O)(O)O)c2cc(-c3ccc(F)cc3)ccc21` (stereo not shown) [Cpd 98, [[5-(4-Fluoro-phenyl)-1-methyl-1H-indol-3-yl]-(naphthalen-2-ylcarbamoyl)-methyl]-phosphonic acid], 2.9 µM.
For `COC(=O)c1cc2ccccc2cc1NC(=O)C(c1cccc2ccccc12)P(=O)(O)O` (stereo not shown) [Cpd 75, 3-(2-Naphthalen-1-yl-2-phosphono-acetylamino)-naphthalene-2-carboxylic acid methyl ester] the value was 1.4 ± 0.6 µM; for `O=C(N/C=C/c1cccnc1)C(c1csc2ccc(Cl)cc12)P(=O)(O)O` (stereo not shown) [Cpd 25], 0.109 ± 0.03 µM.
Take `CN(Cc1ccccc1)Cc1cc2ccccc2cc1NC(=O)C(c1cccc2ccccc12)P(=O)(O)O` (stereo not shown) [Cpd 142]: the IC50 amounted to 9.54 ± 4.2 µM.
For `Cn1cc(C(C(=O)Nc2ccc3ccccc3c2)P(=O)(O)O)c2c(Cl)cccc21` (stereo not shown) [Cpd 63, [(4-Chloro-1-methyl-1H-indol-3-yl)-(naphthalen-2-ylcarbamoyl)-methyl]-phosphonic acid] the value was 0.83 ± 0.18 µM; for `O=C(COc1cc2ccccc2cc1NC(=O)C(c1cccc2ccccc12)P(=O)(O)O)NCCCc1ccccc1` (stereo not shown) [Cpd 130], 7.44 ± 3.73 µM; for `O=C(Nc1ccc2[nH]ccc2c1)C(c1cccc2ccccc12)P(=O)(O)O` (stereo not shown) [Cpd 129], 7.4 µM.
The figure for `COCCCP(=O)(O)C(C(=O)Nc1ccc2ccccc2c1)c1csc2ccc(Cl)cc12` (stereo not shown) [Cpd 34] is 0.22 ± 0.01 µM.
The figure for `O=C(Nc1cnc2ccccc2c1)C(c1cccc2ccccc12)P(=O)(O)O` (stereo not shown) [Cpd 57] is 0.609 µM; for `O=C(Nc1ccc2ccccc2c1)C(c1csc2ccc(Cl)cc12)P(=O)(O)CCCc1ccc2c(c1)OCO2` (stereo not shown) [Cpd 39] it is 0.31 ± 0.04 µM; for `CP(=O)(O)C(C(=O)N/C=C/c1cc(F)ccc1F)c1csc2ccc(Cl)cc12` (stereo not shown) [Cpd 169] it is 0.042 µM.
For the molecule `O=C(Nc1ccc2ccccc2n1)C(c1cccc2ccccc12)P(=O)(O)O` (stereo not shown) [Cpd 96], the IC50 came to 2.8 µM.
For `O=C(Nc1ccc2ncccc2c1)C(c1cccc2ccccc12)P(=O)(O)O` (stereo not shown) [Cpd 79] the value was 1.6 µM; for `O=C(NCc1ccccc1)c1cc2ccccc2cc1NC(=O)C(c1cccc2ccccc12)P(=O)(O)O` (stereo not shown) [Cpd 119, [(3-Benzylcarbamoyl-naphthalen-2-ylcarbamoyl)-naphthalen-1-yl-methyl]-phosphonic acid], 5.8 µM.
For `O=C(NC=Cc1ccc(O)cc1)C(c1csc2ccc(Cl)cc12)P(=O)(O)O` (stereo not shown) [Cpd 66] the value was 0.868 ± 0.13 µM.
On to `O=C(Nc1ccc2ccccc2c1)C(C1=CS(=O)(=O)c2ccc(Cl)cc21)P(=O)(O)O` (stereo not shown) [Cpd 86, [(5-Chloro-1,1-dioxo-1H-1λ^6-benzo[b]thiophen-3-yl)-(naphthalen-2-ylcarbamoyl)-methyl]-phosphonic acid], for which 1.9 ± 0.4 µM corresponded to half-maximal inhibition (IC50). This IC50 is about 2.2-fold higher than that of the molecule before.
For `CP(=O)(O)C(C(=O)N/C=C/c1cc(F)c(F)c(F)c1)c1csc2ccc(Cl)cc12` (stereo not shown) [Cpd 16] the value was 0.055 ± 0.005 µM; for `COc1ccc(CCN(C)C(=O)c2cc3ccccc3cc2NC(=O)C(c2cccc3ccccc23)P(=O)(O)O)cc1OC` (stereo not shown) [Cpd 115], 5.36 µM.
The figure for `COc1ccc2c(c1)c(C(C(=O)Nc1ccc3ccccc3c1)P(=O)(O)O)cn2C` (stereo not shown) [Cpd 74] is 1.39 ± 0.554 µM; for `NS(=O)(=O)OCC(C(=O)Nc1ccc2ccccc2c1)c1csc2ccc(Cl)cc12` (stereo not shown) [Cpd 120, Sulfamic acid 2-(5-chloro-benzo[b]thiophen-3-yl)-2-(naphthalen-2-ylcarbamoyl)-ethyl ester] it is 5.86 ± 1.08 µM.
The molecule `O=C(Nc1cc2ccccc2cc1C(=O)N1CCC(n2nnc3ccccc32)CC1)C(c1cccc2ccccc12)P(=O)(O)O` (stereo not shown) [Cpd 100] registered an IC50 of 3 ± 1.43 µM.
Take `O=C(Nc1ccc2cc(Br)ccc2c1)C(c1csc2ccc(Cl)cc12)P(=O)(O)O` (stereo not shown) [Cpd 67]: the IC50 stood at 0.92 ± 0.25 µM.
The figure for `Cn1cc(C(C(=O)Nc2ccc3ccccc3c2)P(=O)(O)O)c2cc(F)ccc21` (stereo not shown) [Cpd 11] is 0.037 ± 0.01 µM; for `O=C(Nc1cc2ccccc2cc1OCc1ccccc1)C(c1cccc2ccccc12)P(=O)(O)O` (stereo not shown) [Cpd 122, [(3-Benzyloxy-naphthalen-2-ylcarbamoyl)-naphthalen-1-yl-methyl]-phosphonic acid] it is 5.94 ± 1.69 µM; for `CP(=O)(O)C(C(=O)N/C=C/c1ccc(F)cc1)c1csc2ccc(Cl)cc12` (stereo not shown) [Cpd 24] it is 0.1 ± 0.033 µM.
For `O=C(Nc1cc2ccccc2cc1C(=O)N1CCC(CCc2ccccc2)C1)C(c1cccc2ccccc12)P(=O)(O)O` (stereo not shown) [Cpd 54] the value was 0.51 ± 0.124 µM; for `CP(=O)(O)C(C(=O)N/C=C/c1cc(F)cc(F)c1)c1csc2ccc(Cl)cc12` (stereo not shown) [Cpd 162], 0.009 µM.
The molecule `COc1cccc(/C=C/NC(=O)C(c2csc3ccc(Cl)cc23)P(C)(=O)O)c1` (stereo not shown) [Cpd 154] displayed an IC50 of 0.036 ± 0.05 µM.
For `Cc1ccccc1C=CNC(=O)C(c1csc2ccc(Cl)cc12)P(C)(=O)O` (stereo not shown) [Cpd 155], the IC50 was 0.34 ± 0.04 µM.
On to `COc1ccccc1/C=C/NC(=O)C(c1csc2ccc(Cl)cc12)P(C)(=O)O` (stereo not shown) [Cpd 145], for which half-maximal inhibition (IC50) was put at 0.035 ± 0.02 µM. This IC50 is about 9.7-fold lower than that of the molecule before.
For `O=C(Nc1ccc2ccccc2c1)OCc1cc2ccccc2cc1NC(=O)C(c1cccc2ccccc12)P(=O)(O)O` (stereo not shown) [Cpd 105] the value was 4.1 µM.
The figure for `O=C(N/C=C/c1ccccc1)C(c1cccc2ccccc12)P(=O)(O)O` (stereo not shown) [Cpd 37] is 0.25 ± 0.12 µM; for `CP(=O)(O)C(C(=O)N/C=C/c1c(F)cccc1F)c1csc2ccc(Cl)cc12` (stereo not shown) [Cpd 156] it is 0.036 ± 0.01 µM; for `O=C(Nc1ccc2ccccc2c1)C(c1cn(CC=Cc2ccccc2)c2ccccc12)P(=O)(O)O` (stereo not shown) [Cpd 27] it is 0.13 ± 0.02 µM.
For `O=C(Nc1cc2ccccc2cc1C(=O)N1CCC(S(=O)(=O)c2ccccc2)C1)C(c1cccc2ccccc12)P(=O)(O)O` (stereo not shown) [Cpd 103] the value was 3.63 µM; for `CP(=O)(O)C(C(=O)N/C=C/c1ccccn1)c1csc2ccc(Cl)cc12` (stereo not shown) [Cpd 150], 0.091 ± 0.02 µM; for `CP(=O)(O)C(C(=O)Nc1cc2ccccc2o1)c1csc2ccc(Cl)cc12` (stereo not shown) [Cpd 146], 0.11 µM.
